Paper PMC4468608, “A distinct p53 target gene set predicts for response to the selective p53–HDM2 inhibitor NVP-CGM097” (eLife, 2015)
Read-outs that look alike come from different tables or passages of the source.

Tested on: cell lines from the Cancer Cell Line Encyclopedia (CCLE)
Experiment: High-throughput cell viability assay, CCLE cell line panel (n = 356)
Assay type: cell-based, human
Details: Homo sapiens
Description: Cell lines were partitioned into sensitive and insensitive groups based on compound potency (IC50). […] All other cell lines were obtained from ATCC (American Type Culture Collection), DSMZ (Deutsche Sammlung von Mikroorganismen und Zellkulturen), and HSRRB (Health Science Research Resources Bank) and cultured in RPMI or Dulbecco's modified Eagle's medium plus 10% FBS (Invitrogen, Carlsbad, CA) at 37°C, 5% CO2.

COc1cc2c(cc1OC(C)C)[C@H](c1ccc(Cl)cc1)N(c1ccc(N(C)C[C@H]3CC[C@H](N4CCNC(=O)C4)CC3)cc1)C(=O)C2 [NVP-CFC218]
IC50 (A 172, read-out: NVP- CFC218 IC50 (µM), cell line A172, central_nervous_system, TP53 WT): > 8 µM | IC50 (A204, A-204, TP53 WT): 2.18 µM | IC50 (A2780, A2780, TP53 WT): 2.24 µM | IC50 (A-375, A-375, TP53 WT): 2.65 µM | IC50 (ACHN, TP53 WT): 2.03 µM | IC50 (AMO1, AMO-1, TP53 WT): 2.01 µM | IC50 (AN3-CA, AN3 CA, TP53 MUT): > 8 µM | IC50 (ASPC1, AsPC-1, TP53 MUT): > 8 µM | IC50 (AU565, AU565, TP53 MUT): > 8 µM | IC50 (BCPAP, B-CPAP, TP53 MUT): > 8 µM | IC50 (BDCM, TP53 WT): 0.7 µM | IC50 (BEN, TP53 MUT): > 8 µM | IC50 (BFTC-905, BFTC-905, TP53 MUT): > 8 µM | IC50 (BFTC-909, BFTC-909, TP53 MUT): > 8 µM | IC50 (BHY, TP53 MUT): > 8 µM | IC50 (BICR 6, TP53 MUT): > 8 µM | IC50 (BL-41, BL-41, TP53 MUT): > 8 µM | IC50 (BL-70, TP53 MUT): > 8 µM | IC50 (BT-20, BT-20, TP53 MUT): > 8 µM | IC50 (BT-474, BT-474, TP53 MUT): > 8 µM | IC50 (BT-549, BT-549, TP53 MUT): > 8 µM | IC50 (BXPC-3, BxPC-3, TP53 MUT): > 8 µM | IC50 (CAKI-2, Caki-2, TP53 WT): 3.63 µM | IC50 (CAL-12T, TP53 MUT): > 8 µM | IC50 (CAL-78, TP53 MUT): > 8 µM | IC50 (CAL-85-1, read-out: NVP- CFC218 IC50 (µM), cell line CAL-85-1, breast, TP53 MUT): > 8 µM | IC50 (CAMA-1, read-out: NVP- CFC218 IC50 (µM), cell line CAMA-1, breast, TP53 MUT): > 8 µM | IC50 (CAPAN-1, Capan-1, TP53 MUT): > 8 µM | IC50 (CAS-1, TP53 MUT): > 8 µM | IC50 (CFPAC-1, CFPAC-1, TP53 MUT): > 8 µM | IC50 (CHL-1, CHL-1, TP53 MUT): > 8 µM | IC50 (CHP-212, CHP-212, TP53 WT): 1.36 µM | IC50 (CMK-11-5, CMK-11-5, TP53 MUT): > 8 µM | IC50 (COLO 205, COLO 205, TP53 MUT): > 8 µM | IC50 (COLO 792, TP53 WT): > 8 µM | IC50 (COLO-679, COLO-679, TP53 WT): 0.91 µM | IC50 (COLO-741, COLO 741, TP53 MUT): > 8 µM | IC50 (COR-L23, COR-L23, TP53 WT): > 8 µM | IC50 (COV318, COV318, TP53 MUT): > 8 µM | IC50 (COV362, COV362, TP53 MUT): > 8 µM | IC50 (COV434, COV434, TP53 WT): 5.89 µM | IC50 (COV504, read-out: NVP- CFC218 IC50 (µM), cell line COV504, ovary, TP53 MUT): > 8 µM | IC50 (COV644, TP53 WT): > 8 µM | IC50 (Calu-3, Calu-3, TP53 MUT): > 8 µM | IC50 (Calu-6, Calu-6, TP53 MUT): > 8 µM | IC50 (Caov-3, Caov-3, TP53 MUT): > 8 µM | IC50 (Capan-2, read-out: NVP- CFC218 IC50 (µM), cell line Capan-2, pancreas, TP53 WT): > 8 µM | IC50 (ChaGo-K-1, ChaGo-K-1, TP53 MUT): > 8 µM | IC50 (DB, TP53 MUT): > 8 µM | IC50 (DBTRG-05MG, TP53 WT): 4 µM | IC50 (DEL, TP53 MUT): > 8 µM | IC50 (DK-MG, TP53 WT): 2.32 µM | IC50 (DMS-53, DMS 53, TP53 MUT): > 8 µM | IC50 (DMS-114, DMS 114, TP53 MUT): > 8 µM | IC50 (DOHH-2, DOHH-2, TP53 WT): 1.18 µM | IC50 (DU-145, DU 145, TP53 MUT): > 8 µM | IC50 (Daoy, TP53 MUT): > 8 µM | IC50 (Detroit 562, Detroit 562, TP53 MUT): > 8 µM | IC50 (EB2, TP53 MUT): > 8 µM | IC50 (EBC-1, EBC-1, TP53 MUT): > 8 µM | IC50 (EFE-184, EFE-184, TP53 MUT): > 8 µM | IC50 (EFM-19, EFM-19, TP53 MUT): > 8 µM | IC50 (EFO-21, EFO-21, TP53 MUT): > 8 µM | IC50 (EM-2, TP53 MUT): > 8 µM | IC50 (ESS-1, read-out: NVP- CFC218 IC50 (µM), cell line ESS-1, endometrium, TP53 MUT): > 8 µM | IC50 (FU-OV-1, TP53 MUT): > 8 µM | IC50 (FaDu, TP53 MUT): > 8 µM | IC50 (Fu97, FU97, TP53 MUT): > 8 µM | IC50 (G-361, G-361, TP53 WT): 3.16 µM | IC50 (G-401, G-401, TP53 WT): 1.6 µM | IC50 (G-402, G-402, TP53 WT): 2.31 µM | IC50 (GCIY, TP53 MUT): > 8 µM | IC50 (GI-1, TP53 MUT): > 8 µM | IC50 (GMS-10, GMS-10, TP53 MUT): > 8 µM | IC50 (GP2d, TP53 WT): 3.45 µM | IC50 (Granta-519, GRANTA-519, TP53 WT): 3.38 µM | IC50 (H4, TP53 WT): 2.84 µM | IC50 (HARA, TP53 MUT): > 8 µM | IC50 (HCC15, HCC-15, TP53 MUT): > 8 µM | IC50 (HCC70, HCC70, TP53 MUT): > 8 µM | IC50 (HCC78, HCC-78, TP53 MUT): > 8 µM | IC50 (HCC1500, HCC1500, TP53 WT): 4.89 µM | IC50 (HCC1806, HCC1806, TP53 MUT): > 8 µM | IC50 (HCC1954, HCC1954, TP53 MUT): > 8 µM | IC50 (HCC4006, HCC4006, TP53 MUT): > 8 µM
